GI50 and TGI data for twelve molecules are collected here from PubChem BioAssay (NCI).

Where “and” joins values, the source holds several entries; their conditions need not be identical. Equal entries are not always repeated.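 Following 48 hours of exposure in 96-well plates, responses at five concentrations were used to interpolate endpoints linearly. GI50 is the concentration that inhibits growth by half. TGI: total growth inhibition.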

Holding throughout (test): DTP human tumour cell line panel, 48 h
Test [1] concerns SW-620 colon.
The test system of test [2] is SNB-75 CNS.
Test [3] deals with DU-145 prostate.
Test [4] has as its system OVCAR-4 ovarian.
Test [5] deals with M14 melanoma.
Test [6] has as its system TK-10 renal.
In test [7] the test system is SNB-19 CNS.
Test [8] relates to NCI-H23 lung.
The subject of test [9] is K-562 leukemia.
Test [10] relates to KM12 colon.

Consider `CN1CCN(c2nc(C3=C(c4c[nH]c5ccccc45)C(=O)NC3=O)c3ccccc3n2)CC1`, for which the GI50 in [1] was 19.8 µM and 19.1 µM; in [2], 4910 nM and 5650 nM; in test [3] it was 23.3 µM and 17.9 µM; in test [4] it was 18.9 µM and 16.2 µM; in [5], 10.5 µM and 17 µM; in [6] it was 27.9 µM and 17.5 µM. In addition, the GI50 in test [7] was 27.2 µM and 23.3 µM; in test [8], 14.8 µM and 17.6 µM; in test [9] it was 11.9 µM and 12.6 µM; in test [10], 4.43 µM and 4.8 µM. The TGI in test [1] is 65 µM and 35.9 µM; in test [2] it was 17.5 µM and 21.6 µM; in test [3], 65 µM and 38 µM; in [4] it was 65 µM and 69.1 µM; in test [5] it was 20.5 µM and 37.6 µM; in test [6], 65 µM and 49 µM. For the same molecule, the TGI in test [7] is 65 µM and 49.2 µM; in test [8] it was 39.9 µM and 41.4 µM; in test [9] it was 65 µM and 49.2 µM; in [10], 65 µM and 24.3 µM.
As for `NS(=O)(=O)OC[C@H]1O[C@@H](n2cnc3c(N[C@H]4CCc5ccccc54)ncnc32)[C@H](O)[C@@H]1O`, the GI50 in test [1] was 0.245 µM; in test [2], 358 nM; in [3], 0.0838 µM; in [4], 0.243 µM; in test [5] it was 0.226 µM; in [6], 0.608 µM. In addition, the GI50 in [7] was 0.0902 µM; in [8], 0.185 µM; in test [9] it was 0.0369 µM; in [10] it was 0.525 µM. In addition, the TGI in test [1] was found to be 5.82 µM; in [2], 1 µM; in [3] it was 1.36 µM; in test [4], 0.626 µM; in test [5] it was 2.35 µM; in test [6], 3.24 µM. Also, the TGI was 2.05 µM in test [7], 1.26 µM in test [8], more than 100 µM in [9] and 2.58 µM in test [10].
Take `CCCCCc1c(C)[nH]c(/C=C2\N=C(c3ccc[nH]3)C=C2Oc2ccc(OC)cc2)c1C`: the GI50 in [1] was 0.0587 µM and 0.0252 µM; in test [2], 204 nM and 32.8 nM; in [3] it was 0.165 µM and 0.0387 µM; in [4], 0.15 µM and 0.0221 µM; in test [5] it was 0.167 µM and 0.0234 µM; in [6], 0.335 µM and 0.0439 µM. In addition, the GI50 in test [7] is 0.44 µM and 0.098 µM; in [8], 0.258 µM and 0.0806 µM; in test [9], 0.0719 µM and 0.0435 µM; in test [10], 0.0555 µM and 0.0314 µM. For the same molecule, the TGI was 1.53 µM and 0.518 µM in [1]; 0.559 µM and 0.316 µM in test [2]; 4.38 µM and 1.52 µM in test [3]; 2.02 µM in test [4]; 0.458 µM and 0.0635 µM in test [5]; 1.69 µM and 0.331 µM in [6]. The TGI in [7] is 1.99 µM; in [8], 2.84 µM and 1.55 µM; in test [9], more than 100 µM; in test [10], 0.622 µM and 0.185 µM.
Take `C=CC[n+]1c(/C=C2\Sc3ccccc3N2C)sc(-c2ccccc2)c1-c1ccccc1`: the 50% growth inhibitory concentration (GI50) in [1] was 0.366 µM; in [2], 298 nM; in test [3], 0.439 µM; in test [4] it was 0.274 µM; in [5] it was 0.373 µM; in test [6], 0.307 µM. Besides, the GI50 in test [7] is 0.375 µM; in test [8] it was 0.289 µM; in [9], 0.344 µM; in test [10], 0.331 µM. Moreover, the TGI came to 13.3 µM in test [1]; 12.2 µM in [3]; 11.9 µM in test [4]; 1.59 µM in test [5]; 3.35 µM in test [6]; 15.1 µM in [7]. Moreover, the TGI was found to be 10.9 µM in test [8], 10 µM in test [9] and 1.95 µM in test [10].
Regarding `O=C1C=Cc2cc3ccccc3c3cccc1c23`, the GI50 in test [1] was 5.22 µM; in test [2], 11800 nM; in test [3], 9.53 µM; in [4], 14.5 µM; in test [5] it was 15.7 µM; in [6], 9.55 µM. Besides, the GI50 is 8.51 µM in [7], 2.57 µM in test [8], 5.59 µM in test [9] and 12.1 µM in [10]. For the same molecule, the TGI is 72.9 µM in test [1]; 72.3 µM in test [2]; more than 100 µM in test [3]; more than 100 µM in test [4]; more than 100 µM in test [5]; 42.3 µM in test [6]. Moreover, the TGI in test [7] is more than 100 µM; in test [8] it was 9.95 µM; in test [9], more than 100 µM; in test [10] it was 35.6 µM.
On to `Nc1ncnc2c1ncn2C1OC(CO)C(O)C1O` (configuration not stated), for which the GI50 in test [1] was 19.3 µM; in test [2], 11600 nM; in test [3], 3.8 µM; in test [5], 32.2 µM; in test [6], 41.1 µM. Further, the concentration for total growth inhibition (TGI) in [1] is more than 450 µM; in test [2], > 100 µM and 331 µM and 38.2 µM; in test [3], 82.4 µM and 31.4 µM; in test [4] it was more than 450 µM; in [5], more than 100 µM; in test [6] it was more than 100 µM. Besides, the concentration for total growth inhibition (TGI) was more than 450 µM in [7]; > 100 µM and > 450 µM and 77.3 µM in test [8]; more than 450 µM in [9]; more than 450 µM in test [10].
Consider `COc1cc2c(cc1OC)[C@@H]1[C@H](C2=O)c2ccc([N+](=O)[O-])cc2C(=O)N1CCCBr`, for which the GI50 in test [1] was 0.213 µM; in test [2] it was 611 nM; in test [3], 0.553 µM; in test [4], 2.4 µM; in test [5], less than 0.01 µM; in [6] it was 1.28 µM. Also, the GI50 is 0.474 µM in [7], less than 0.01 µM in [8], 1.26 µM in test [9] and 0.406 µM in test [10]. Also, the TGI in test [1] is more than 100 µM; in test [2], 12.5 µM; in test [3] it was more than 20.4 µM; in [4], more than 100 µM; in test [5], 0.0139 µM; in test [6] it was 41.1 µM. The TGI in test [7] was more than 100 µM; in [8] it was 1.8 µM; in [9] it was more than 100 µM; in test [10] it was 4.6 µM.
Consider `COc1ccc2c(c1)Cc1cc(N=[N+]([O-])c3ccc4c(c3)Cc3cc(OC)ccc3-4)ccc1-2`, for which the concentration for total growth inhibition (TGI) in test [1], in test [2], in test [3], in test [4], in [5] and in test [6] was more than 100 µM in each case. The TGI in [7], in test [8], in [9] and in test [10] was more than 100 µM throughout.
As to `O=c1cc(N2CCOCC2)oc2c(-c3ccccc3)cccc12`, the GI50 was 15.5 µM in test [1]; 1910 nM in test [2]; 6.73 µM in [3]; 3.5 µM in test [4]; 5.38 µM in test [5]; 4.39 µM in test [6]. Moreover, the GI50 in [8] is 9.08 µM; in [10] it was 10.6 µM. The TGI is more than 100 µM in test [1]; 14.6 µM and 5.97 µM in test [2]; more than 100 µM in test [3]; > 61.9 µM and 75.5 µM in [4]; > 38.5 µM and 56 µM in test [5]; 40.3 µM and > 100 µM in [6]. The TGI in test [7] is > 96.2 µM and 78.6 µM; in test [8], more than 100 µM; in test [9], > 100 µM and 79.7 µM; in [10] it was 44.9 µM and 28.8 µM.
For the molecule `COc1ccc(-c2ccc(/C=N/n3cnn(CN4CCN(C)CC4)c3=S)o2)c([N+](=O)[O-])c1`, the GI50 in [1] was 31.6 µM; in test [2], 68900 nM; in [3] it was 38.1 µM; in test [4], more than 100 µM; in [5] it was 14.2 µM; in [6], 36.4 µM. For the same molecule, the GI50 in test [7] was 56.4 µM; in test [8], 16.8 µM; in test [9] it was 33.6 µM; in test [10], 33.3 µM. The TGI is more than 100 µM in [1]; more than 100 µM in test [2]; more than 100 µM in test [3]; more than 100 µM in [4]; 60.7 µM in test [5]; more than 100 µM in test [6]. The TGI was more than 100 µM in test [7], 54.6 µM in test [8], more than 100 µM in test [9] and more than 100 µM in test [10].
As to `CC(C)=CCNc1ncnc2c1ncn2C1OC(COP(=O)(O)O)C(O)C1O` (configuration not stated), the GI50 in test [1] was 3.89 µM; in test [2], 2060 nM; in test [3] it was 1.35 µM; in test [4] it was 5.01 µM; in test [5], 10.4 µM; in test [6], 2.06 µM. The GI50 was 26.3 µM in [7], 6.68 µM in [8], 4.22 µM in test [9] and 20.1 µM in test [10]. Further, the TGI in test [1] is more than 100 µM; in test [2], 34.1 µM; in [3], 4.15 µM; in test [4], 34.3 µM; in test [5] it was more than 100 µM; in test [6], 5.59 µM. In addition, the TGI in test [7], in test [8], in test [9] and in test [10] was more than 100 µM in each case.
Take `COc1cc(Oc2cnc3cc(N)cc(N)c3n2)cc(OC)c1OC`: the GI50 in test [1] is 44.3 µM; in test [2], 19200 nM; in test [3] it was 62.3 µM; in [4] it was 37.3 µM; in test [5], 22.7 µM; in test [6] it was 33.3 µM. The GI50 in test [7] is more than 100 µM; in test [8], 31.4 µM; in test [9], 38.1 µM; in test [10] it was 24.9 µM. The TGI in [1] is more than 100 µM; in [2] it was 72.4 µM; in test [3], more than 100 µM; in test [4], more than 100 µM; in test [5] it was 76.2 µM; in [6] it was more than 100 µM. In addition, the TGI in [7], in test [8], in test [9] and in test [10] was more than 100 µM in each case.

A word on the GI50: it is the concentration giving 50% growth inhibition. For orientation: TGI means the concentration giving total growth inhibition. Low values mean greater sensitivity of the cells, high ones lower sensitivity of the cells.
